The record followed here is US20070077316A1, “Compositions and methods for treating and preventing virus infections” (priority 2005, published 2007).

The subject of one data set is HRV14-induced vNOX. The experiment in a line: Spectrophotometric vNOX activity assay (NADH oxidation) with HRV-infected MCF-10A cells.
Data set [1] relates to tNOX-like activity (vNOX). The experiment in a line: NADH oxidase activity at the surface of HRV14-infected MCF-10A cells (tNOX-like activity, 22 min period). The data set is classed as biochemical, human. The following applies: 1 μM, added after 45 min. How it is done:
FIG. 11: NADH oxidase activity assayed for 90 min at the surface of MCF-10A human mammary epithelial cells. Capsaicin (1 μM) was added after 45 min and the assay was continued for an additional 45 min. Top Panel: No virus. Bottom Panel: MCF-10A human mammary cells infected with HRV 14. The MCF-10A cells normally lack a drug-inhibited NOX activity (lack tNOX). The normal, capsaicin-resistant constitutive NOX activity with a period length of 24 min is shown by the single downward pointing arrows. The triple arrows are tNOX-like activities with a period length of 22 min and which were inhibited by capsaicin. This activity appeared only in the virus-infected cells (see also FIG. 12). The upward pointing arrows denote a capsaicin-stimulated activity sometimes observed in proliferating endothelial cells present both with and without virus. tNOX-like activities (triple arrows) inhibited by 1 μM capsaicin now dominate the activity pattern.
FIG. 12: As in FIG. 11 except 20 h post-infection with HRV 14. Top Panel: No virus. The control MCF-10A cells normally lack a drug-inhibited NOX activity (lack tNOX). Bottom Panel: MCF-10A cells 20 h post infection with HRV 14. The normal, capsaicin-resistant constitutive NOX activity with a period length of 24 min is shown by the single downward pointing arrows. […]

The next data set has as its system MT-2 cells. The experiment in a line: Toxicity to non-infected MT-2 cells by MTT utilization. The format is cell-based, human. On the procedure:
After 5 days, 20 μl of MTT stock solution (7.5 mg/ml) was added. […] Subsequently, 100 μl of 10% v/v Triton X100 in acidified isopropanol was added, and absorbance was determined at 550 nm with reference at 630 nm. The cytotoxic effect of EGCg was reflected by a decrease of the cell viability of mock infected cells in the presence of EGCg in comparison to mock infected cells without EGCg (OD 492 nm) was lower than the value of mock infected cells without EGCg. The cytotoxicity values are given as negative values. Positive values are recorded for a stimulatory effect on cell viability and/or an increase in cell proliferation. Testing the antiviral potency of various compositions was accomplished as follows. EGCg and EC were from Sigma (St. Louis, Mo.). Stock solutions of 100 mM were prepared in ethanol and serially diluted with water between 10^−3 molar and 10^−9 molar. […] Each experiment was in a fourfold assay.

A further data set relates to HRV14. The experiment in a line: HRV14 cytopathic effect in human osteoblast (hFOB) cells. The following applies: between 1 and 1000 nM. A general note: Protection from cytopathic effect is a common read-out in antiviral testing.
[2] abbreviates: read-out: EC50 Cell Production I (Mar. 24, 2003), 73 h hrv-infected MCF-10A cells.
[3] abbreviates: read-out: EC50 inhibition of vNOX.
The mark [4] stands for this setting: read-out: EC50 Cell Production II (Apr. 01, 2003), 73 h hrv-infected MCF-10A cells.

Values joined by “and” are separate entries in the source; they are usually repeats but may differ in a detail not shown here. Equal entries are not always repeated. Where two headings read alike, the source gives them in different places.

As a reminder, the EC50 is the concentration needed to bring the measured effect to its halfway point. Take `CC(=O)Nc1ccc(O)cc1` [Acetaminophen]: the “EC50 inhibition of vNOX, range in words” value in the data set with HRV14-induced vNOX is given as “micromolar range”. In addition, the concentration giving a half-maximal response (EC50) with HRV14-induced vNOX (setting [2]) was 1000 nM.

Regarding `COc1cc(CNC(=O)CCCC/C=C/C(C)C)ccc1O` [Capsaicin], in data set [1], the “tNOX-like activities with a period length of 22 min” value was “inhibited”. Moreover, the 50% effective concentration (EC50) in the data set with HRV14-induced vNOX (read-out: EC50 Cell Production IV (May 01, 2003), 72 h HRV-infected MCF-10A cells) stood at 1 nM.

With `Oc1cc(O)c2c(c1)O[C@H](c1ccc(O)c(O)c1)[C@H](O)C2` [EC, (−)-epicatechin], the “toxicity by MTT utilization” value in the data set with MT-2 cells is “no toxicity”.

As to `CC(C)Cc1ccc(C(C)C(=O)O)cc1` (stereo not drawn) [Ibuprofen], in the data set with HRV14-induced vNOX, the “EC50 inhibition of vNOX, range in words” value was “micromolar range”. In addition, the EC50 is 1000 nM in the data set with HRV14-induced vNOX (setting [2]) and roughly 10000 nM with HRV14-induced vNOX (setting [3]).

Consider `COc1ccc2cc([C@H](C)C(=O)O)ccc2c1` [Naproxen], for which, in the data set on HRV14-induced vNOX, the “EC50 inhibition of vNOX, range in words” value is given as “micromolar range”. For the same molecule, the EC50 in the data set with HRV14-induced vNOX (setting [2]) is 5000 nM; with HRV14-induced vNOX (setting [4]), 2000 nM; with HRV14-induced vNOX (setting [3]), roughly 10000 nM.

For `COc1cc(CN)ccc1O` [Vanillylamine], in the data set with HRV14-induced vNOX (setting [3]), the EC50 was 0.1 nM.

As to `[Cl-].[Cl-].[Zn+2]` [ZnCl2, zinc chloride], the “reduction of the cytopathic effect” value with HRV14 (virus dilution of 1:20) is 71±9%; in the data set with HRV14 (virus dilution of 1:50), 50%±14%. For the same molecule, the EC50 with HRV14-induced vNOX (setting [2]) is 10 nM; with HRV14-induced vNOX (setting [4]), 10 nM; in the data set with HRV14-induced vNOX (setting [3]) it was ~10 nM and 10 nM.
